A word on the pIC50: it is the negative decadic logarithm of the IC50, by convention in mol/L.

For one assay, the target named is T1, DDR1 protein (Homo sapiens, UniProt Q08345).
T1 construct: purchased Carna Biosciences 08-113
The assay is described as follows: Evaluation of DDR1 kinase inhibitory activity (LANCE Ultra TR-FRET). Format: biochemical. The note with it: DDR1 protein 0.5 nM, ATP 100 μM, 2 hours at room temperature; read-out: DDR-1 IC50. As for the experimental part:
The test was performed in duplicate.

For assay [1], the target named is T2, DDR1 kinase in DDR1-expressing U2OS cells (Homo sapiens, UniProt Q08345).
T2 construct: host or cells: U2OS
T2 sequence (Q08345 19-913): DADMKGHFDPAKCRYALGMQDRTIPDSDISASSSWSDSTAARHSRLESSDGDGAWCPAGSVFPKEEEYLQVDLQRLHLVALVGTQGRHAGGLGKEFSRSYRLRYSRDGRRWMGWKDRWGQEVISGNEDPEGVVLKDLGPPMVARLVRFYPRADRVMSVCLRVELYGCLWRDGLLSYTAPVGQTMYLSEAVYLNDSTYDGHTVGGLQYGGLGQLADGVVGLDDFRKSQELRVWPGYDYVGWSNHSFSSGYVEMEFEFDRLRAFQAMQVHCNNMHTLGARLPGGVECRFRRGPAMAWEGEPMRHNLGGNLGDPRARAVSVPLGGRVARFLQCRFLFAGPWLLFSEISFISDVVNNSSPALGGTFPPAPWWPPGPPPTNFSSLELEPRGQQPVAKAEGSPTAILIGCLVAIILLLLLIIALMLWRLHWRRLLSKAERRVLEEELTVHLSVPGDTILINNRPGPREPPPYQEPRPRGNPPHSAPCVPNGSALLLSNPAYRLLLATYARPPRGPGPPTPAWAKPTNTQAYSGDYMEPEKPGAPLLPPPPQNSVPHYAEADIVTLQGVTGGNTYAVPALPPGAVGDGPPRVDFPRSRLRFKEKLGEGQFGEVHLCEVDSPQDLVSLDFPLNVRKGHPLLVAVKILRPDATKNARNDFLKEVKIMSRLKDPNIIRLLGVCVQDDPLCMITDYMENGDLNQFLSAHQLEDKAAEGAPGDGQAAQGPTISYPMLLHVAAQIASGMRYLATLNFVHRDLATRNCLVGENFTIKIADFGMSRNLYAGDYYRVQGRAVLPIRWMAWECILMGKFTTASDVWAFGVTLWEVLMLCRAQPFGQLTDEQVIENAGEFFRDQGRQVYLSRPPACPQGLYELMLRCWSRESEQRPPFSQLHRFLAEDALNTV
The assay is described as follows: DDR1 kinase inhibitory effect in DDR1-expressing U2OS cells (PathHunter, type I collagen stimulation). Format: cell-based. The note with it: type I collagen 50 μg/mL, 10% FBS, read-out: DDR-1 IC50. As for the experimental part:
Test compounds in DMSO were prepared at 10 mM and diluted with DMSO to final concentrations of 1000, 100, 10, 1, and 0.1 μM. These solutions were diluted further with E-MEM medium (Fujifilm Wako Pure Chemical Industries, 051-07615) containing 10% fetal bovine serum (FBS, Gibco, 10270106) to 60,000, 6,000, 600, 60, 6, and 0.6 nM to obtain test sample solutions.
DDR1-expressing U2OS cells (DiscoverX, 93-0894C3) suspended at 2.5×10^5 cells/mL in 10% FBS+E-MEM medium were seeded in 384-well plates (DiscoverX, 92-0013) in 20 μL portions and cultured overnight at 37° C. and 5% CO2.
The next day, the test sample solutions as prepared were added at 5 μL/well to final concentrations of 10,000, 1,000, 100, 10, 1, and 0.1 nM. After incubation at 37° C. and 5% CO2 for 1 hour, type I collagen (Nitta Gelatin, 631-00771) was added at 5 μL/well to a final concentration of 50 μg/mL, and cultured overnight at 37° C. and 5% CO2.
The next day, the plate was left at room temperature for 1 hour, after which 5 μL/well of detection solution was added according to the instruction manual for the PathHunter (registered trademark) Detection Kit (DiscoverX, 93-0001). […] The test was performed in duplicate.

pIC50: −log10 of the molar value.

T1 sequence (Q08345 19-876 isoform Q08345-2 limits assumed): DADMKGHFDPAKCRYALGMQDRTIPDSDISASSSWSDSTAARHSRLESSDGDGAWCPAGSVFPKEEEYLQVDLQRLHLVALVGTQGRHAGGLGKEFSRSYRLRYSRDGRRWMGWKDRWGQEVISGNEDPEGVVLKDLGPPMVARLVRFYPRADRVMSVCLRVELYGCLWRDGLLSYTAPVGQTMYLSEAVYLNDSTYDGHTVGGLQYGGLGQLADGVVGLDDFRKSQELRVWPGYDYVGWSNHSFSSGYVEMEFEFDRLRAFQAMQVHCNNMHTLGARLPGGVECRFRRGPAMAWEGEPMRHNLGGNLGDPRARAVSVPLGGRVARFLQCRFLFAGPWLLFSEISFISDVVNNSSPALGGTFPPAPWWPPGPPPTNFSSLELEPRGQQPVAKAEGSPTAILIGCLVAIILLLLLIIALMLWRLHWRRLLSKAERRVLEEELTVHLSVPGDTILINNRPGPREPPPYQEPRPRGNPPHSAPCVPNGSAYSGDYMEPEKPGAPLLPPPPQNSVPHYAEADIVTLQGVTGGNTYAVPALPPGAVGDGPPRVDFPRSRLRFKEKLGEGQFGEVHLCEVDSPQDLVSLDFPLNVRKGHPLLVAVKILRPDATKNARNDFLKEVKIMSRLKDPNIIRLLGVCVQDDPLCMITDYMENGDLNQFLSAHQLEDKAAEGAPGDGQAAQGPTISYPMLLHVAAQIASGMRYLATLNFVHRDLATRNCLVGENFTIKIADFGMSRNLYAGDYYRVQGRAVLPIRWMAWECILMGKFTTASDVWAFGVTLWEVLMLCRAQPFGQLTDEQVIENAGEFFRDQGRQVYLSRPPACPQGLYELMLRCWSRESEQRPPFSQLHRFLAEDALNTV

Consider `O=C(N[C@H]1C[C@H](OC(F)(F)F)C[C@@H]1O)c1ccc(OC(F)F)c(C#Cc2cncc(F)c2)c1` [Example 2, 4-(Difluoromethoxy)-3-[2-(5-fluoropyridin-3-yl)ethynyl]-N-[(1S,2S,4S)-2-hydroxy-4-(trifluoromethoxy)cyclopentyl]benzamide], for which the pIC50 on DDR1 protein was 8.44; in assay [1], 7.42.

In the case of `CCc1ncc(C(=O)N[C@H]2C[C@H](OC(F)(F)F)C[C@@H]2O)cc1/C=C(\F)c1cnc(N)nc1` [Example 11, 5-[(1Z)-2-(2-Aminopyrimidin-5-yl)-2-fluoroethenyl]-6-ethyl-N-[(1S,2S,4S)-2-hydroxy-4-(trifluoromethoxy)cyclopentyl]pyridine-3-carboxamide], the negative-log IC50 (pIC50) on DDR1 protein was 7.66; in assay [1], 6.92.

Take `Nc1ncc(/C=C(\F)c2cc(C(=O)N[C@H](CO)CCOC(F)(F)F)ccc2OC(F)F)cn1` [Example 12, 3-[(1Z)-2-(2-Aminopyrimidin-5-yl)-1-fluoroethenyl]-4-(difluoromethoxy)-N-[(2S)-1-hydroxy-4-(trifluoromethoxy)butan-2-yl]benzamide]: the negative logarithm of the IC50 (pIC50) is 8.96 on DDR1 protein and 7.85 in assay [1].

Take `COc1cncc(/C=C(\F)c2cc(C(=O)N[C@H]3C[C@H](OC(F)(F)F)C[C@@H]3O)cc(F)c2OC(F)F)c1` [Example 13, 4-(Difluoromethoxy)-3-fluoro-5-[(1Z)-1-fluoro-2-(5-methoxypyridin-3-yl)ethenyl]-N-[(1S,2S,4S)-2-hydroxy-4-(trifluoromethoxy)cyclopentyl]benzamide]: the negative logarithm of the IC50 (pIC50) at DDR1 protein is 9.06; in assay [1], 8.72.

Turning to `NC(=O)c1ncc2cc(-c3cc(C(=O)N[C@H]4C[C@H](OC(F)(F)F)C[C@@H]4O)cnc3C(F)(F)F)ccn12` [Example 15, 5-{3-Carbamoylimidazo[1,5-a]pyridin-7-yl}-N-[(1S,2S,4S)-2-hydroxy-4-(trifluoromethoxy)cyclopentyl]-6-(trifluoromethyl)pyridine-3-carboxamide], the pIC50 on DDR1 protein was 8.66; in assay [1] it was 7.85.

With `CCc1ccc(C(=O)N[C@H]2C[C@H](OC(F)(F)F)C[C@@H]2O)cc1NC(=O)c1cnc(-c2ccccc2)o1` [Example 16, N-(2-Ethyl-5-{[(1S,2S,4S)-2-hydroxy-4-(trifluoromethoxy)cyclopentyl]carbamoyl}phenyl)-2-phenyl-1,3-oxazole-5-carboxamide], the pIC50 on DDR1 protein is 8.12; in assay [1], 7.89.

As for `CCc1ccc(C(=O)N[C@H]2C[C@H](OC(F)(F)F)C[C@@H]2O)cc1NC(=O)c1cnc(CC2CC2)s1` [Example 17, 2-(Cyclopropylmethyl)-N-(2-ethyl-5-{[(1S,2S,4S)-2-hydroxy-4-(trifluoromethoxy)cyclopentyl]carbamoyl}phenyl)-1,3-thiazole-5-carboxamide], the figures for the pIC50 (on DDR1 protein; in assay [1]) were 8.80 and 7.77, respectively.

As to `O=C(N[C@H]1CC2(CC2)C[C@@H]1O)c1ccc(OC(F)F)c(C#Cc2cncnc2)c1` [Example 18, 4-(Difluoromethoxy)-N-[(5S,6S)-6-hydroxyspiro[2.4]heptan-5-yl]-3-[2-(pyrimidin-5-yl)ethynyl]benzamide], the negative logarithm of the IC50 (pIC50) on DDR1 protein was 7.66; in assay [1], 6.82.

Take `O=C(N[C@H]1CC2(CC2)C[C@@H]1O)c1ccc(OC(F)F)c(C#Cc2cncc(F)c2)c1` [Example 19, 4-(Difluoromethoxy)-3-[2-(5-fluoropyridin-3-yl)ethynyl]-N-[(5S,6S)-6-hydroxyspiro[2.4]heptan-5-yl]benzamide]: the pIC50 was 8.49 at DDR1 protein and 7.57 in assay [1].

`Nc1ncc(C#Cc2cc(C(=O)N[C@H]3CC(F)(F)CC[C@@H]3O)ccc2OC(F)F)cn1` [Example 20, 3-[2-(2-Aminopyrimidin-5-yl)ethynyl]-N-[(1S,2S)-5,5-difluoro-2-hydroxycyclohexyl]-4-(difluoromethoxy)benzamide p-toluenesulfonate]: the pIC50 at DDR1 protein is 8.51; in assay [1], 7.80.

For `Nc1ncc(C#Cc2cc(C(=O)N[C@H]3CC4(CC4)C[C@@H]3O)ccc2OC(F)F)cn1` [Example 21, 3-[2-(2-Aminopyrimidin-5-yl)ethynyl]-4-(difluoromethoxy)-N-[(5S,6S)-6-hydroxyspiro[2.4]heptan-5-yl]benzamide], the negative logarithm of the IC50 (pIC50) on DDR1 protein is 9.57; in assay [1] it was 7.96.

On to `COc1nc(N)ncc1C#Cc1cc(C(=O)N[C@H]2CC3(CC3)C[C@@H]2O)ccc1OC(F)F` [Example 23, 3-[2-(2-Amino-4-methoxypyrimidin-5-yl)ethynyl]-4-(difluoromethoxy)-N-[(5S,6S)-6-hydroxyspiro[2.4]heptan-5-yl]benzamide], for which the negative-log IC50 (pIC50) at DDR1 protein was 9.60; in assay [1] it was 8.39.

Regarding `Cn1cc(C#Cc2cc(C(=O)N[C@H](CO)CCOC(F)(F)F)ccc2OC(F)F)cn1` [Example 24, 4-(Difluoromethoxy)-N-[(2S)-1-hydroxy-4-(trifluoromethoxy)butan-2-yl]-3-[2-(1-methyl-1H-pyrazol-4-yl)ethynyl]benzamide], the results for the pIC50 (at DDR1 protein; in assay [1]) were 7.44 and 7.01, respectively.

As to `Nc1cnc(/C(F)=C/c2cc(C(=O)N[C@H]3CC(F)(F)CC[C@@H]3O)ccc2OC(F)F)cn1` [Example 25, 3-[(1Z)-2-(5-Aminopyrazin-2-yl)-2-fluoroethenyl]-N-[(1S,2S)-5,5-difluoro-2-hydroxycyclohexyl]-4-(difluoromethoxy)benzamide], the pIC50 at DDR1 protein was 8.77; in assay [1] it was 7.72.

Consider `Nc1cnc(/C(F)=C/c2cc(C(=O)N[C@H]3CC4(CC4)C[C@@H]3O)ccc2OC(F)F)cn1` [Example 26, 3-[(1Z)-2-(5-Aminopyrazin-2-yl)-2-fluoroethenyl]-4-(difluoromethoxy)-N-[(5S,6S)-6-hydroxyspiro[2.4]heptan-5-yl]benzamide], for which the pIC50 at DDR1 protein is 8.29; in assay [1], 7.70.

On to `NC(=O)c1ncc2cc(-c3cc(C(=O)N[C@H]4CC(F)(F)CC[C@@H]4O)ccc3C(F)(F)F)ccn12` [Example 27, 7-(5-{[(1S,2S)-5,5-Difluoro-2-hydroxycyclohexyl]carbamoyl}-2-(trifluoromethyl)phenyl)imidazo[1,5-a]pyridine-3-carboxamide], for which the pIC50 at DDR1 protein is 8.40; in assay [1] it was 8.00.

`NC(=O)c1ncc2cc(-c3cc(C(=O)N[C@H]4CC5(CC5)C[C@@H]4O)ccc3C(F)(F)F)ccn12` [Example 28, 7-(5-{[(5S,6S)-6-Hydroxyspiro[2.4]heptan-5-yl]carbamoyl}-2-(trifluoromethyl)phenyl)imidazo[1,5-a]pyridine-3-carboxamide]: the pIC50 was 9.07 at DDR1 protein and 8.11 in assay [1].

Consider `NC(=O)c1ncc2cc(-c3cc(C(=O)N[C@H]4C[C@H](OC(F)(F)F)C[C@@H]4O)ccc3C(F)(F)F)ccn12` [Example 29, 7-(5-{[(1S,2S,4S)-2-Hydroxy-4-(trifluoromethoxy)cyclopentyl]carbamoyl}-2-(trifluoromethyl)phenyl)imidazo[1,5-a]pyridine-3-carboxamide], for which the pIC50 was 9.09 at DDR1 protein and 8.51 in assay [1].

Turning to `NC(=O)c1ncc2cc(-c3cc(C(=O)N[C@H](CO)CCOC(F)(F)F)cnc3C(F)(F)F)ccn12` [Example 30, 5-{3-Carbamoylimidazo[1,5-a]pyridin-7-yl}-N-[(2S)-1-hydroxy-4-(trifluoromethoxy)butan-2-yl]-6-(trifluoromethyl)pyridine-3-carboxamide], the values for the pIC50 (at DDR1 protein; in assay [1]) were 7.74 and 7.11, respectively.

Consider `NC(=O)c1ncc2cc(-c3cc(C(=O)N[C@H](CO)CCOC(F)(F)F)ccc3C(F)(F)F)ccn12` [Example 31, 7-(5-{[(2S)-1-Hydroxy-4-(trifluoromethoxy)butan-2-yl]carbamoyl}-2-(trifluoromethyl)phenyl)imidazo[1,5-a]pyridine-3-carboxamide], for which the results for the pIC50 (on DDR1 protein; in assay [1]) were 8.66 and 8.28, respectively.

Turning to `CCc1ccc(C(=O)N[C@H](CO)CCOC(F)(F)F)cc1NC(=O)c1cncc(-c2cccc(F)c2)c1` [Example 32, N-(2-Ethyl-5-{[(2S)-1-hydroxy-4-(trifluoromethoxy)butan-2-yl]carbamoyl}phenyl)-5-(3-fluorophenyl)pyridine-3-carboxamide], the negative logarithm of the IC50 (pIC50) was 7.59 at DDR1 protein and 7.27 in assay [1].

With `CCc1ccc(C(=O)N[C@H]2C[C@H](OC(F)(F)F)C[C@@H]2O)cc1NC(=O)c1cncc(-c2cccc(F)c2)c1` [Example 33, N-(2-Ethyl-5-{[(1S,2S,4S)-2-hydroxy-4-(trifluoromethoxy)cyclopentyl]carbamoyl}phenyl)-5-(3-fluorophenyl)pyridine-3-carboxamide], the pIC50 at DDR1 protein was 8.74; in assay [1], 8.13.

As to `Nc1ncc(/C(F)=C/c2cc(C(=O)N[C@H](CO)c3cccc(F)c3)ccc2OC(F)F)cn1` [Example 34, 3-[(1Z)-2-(2-Aminopyrimidin-5-yl)-2-fluoroethenyl]-4-(difluoromethoxy)-N-[(1S)-1-(3-fluorophenyl)-2-hydroxyethyl]benzamide], the negative logarithm of the IC50 (pIC50) at DDR1 protein is 8.09; in assay [1], 7.36.
